Measurements: patent EP4129319A1, “PORE-FORMING ANTIMICROBIAL PEPTIDES” (priority 2021, dated 2023)
Ends that are not written are not given here.

Assay: Calcein leakage assay
Assay type: biochemical
Details: calcein leakage, POPC:POPG (1:1 mol/mol) LUVs; for Extent of leakage (in percentage) at increasing peptide-to-lipid ratio (mol/mol) 1:10: peptide-to-lipid ratio 1:10 (mol/mol); for Extent of leakage (in percentage) at increasing peptide-to-lipid ratio (mol/mol) 1:20: peptide-to-lipid ratio 1:20 (mol/mol); for Extent of leakage (in percentage) at increasing peptide-to-lipid ratio (mol/mol) 1:50: peptide-to-lipid ratio 1:50 (mol/mol); for Extent of leakage (in percentage) at increasing peptide-to-lipid ratio (mol/mol) 1:100: peptide-to-lipid ratio 1:100 (mol/mol)
Procedure: Chemicals. […] (Prague, Czech Republic), and Caslo ApS (Kongens Lyngby, Denmark). […] The bacterial stock was stored at -80°C.
Calcein leakage assay. Pore-forming activity of the peptides was tested by their ability to leak the self-quenching fluorescent dye calcein entrapped within POPC:POPG (1:1 mol/mol) large unilamellar vesicles (LUVs). After mixing DiD to the lipid mixture (in the ratio 1:500 mol/mol), a thin lipid film was created by evaporating of the chloroform, traces of which were removed by desiccating overnight. The lipid film was then dissolved in calcein buffer, followed by vigorous vortexing. The lipid suspension was subsequently subjected to 10 freeze-thaw cycles. To obtain uniform LUVs, the sample was passed 50 times back and forth through an extruder stacked with 100 nm pore size polycarbonate membrane filter. Afterwards, the untrapped calcein was removed on a HiTrap Desalting Column (with Sephadex G-25 Superfine resin) by washing with PBS buffer. The concentration of the lipid suspension was then adjusted to 0.02 mM. The concentration of the peptide solution was 0.1 mM. The inventors monitored the peptide-induced release of calcein from LUVs by the increase in fluorescence intensity after adding increasing amounts of peptides to the LUVs under constant stirring at 25 °C. The investigated range of peptide/lipid molecular ratio was from 1:100 to 1:10. The excitation and emission wavelengths were set to 495 nm and 520 nm, respectively. Maximum fluorescence intensity was obtained by disrupting all the vesicles in the end by adding 10% Triton X-100. Experiments were performed in triplicates with independently prepared lipid vesicles.

NQRRLQNILRRLFQFIDQLINDLQNIRRQN [RDFA5]
Aggregated peptides and no leakage: Extent of leakage (in percentage) at increasing peptide-to-lipid ratio (mol/mol) 1:10 | Extent of leakage (in percentage) at increasing peptide-to-lipid ratio (mol/mol) 1:20 | Extent of leakage (in percentage) at increasing peptide-to-lipid ratio (mol/mol) 1:50 | Extent of leakage (in percentage) at increasing peptide-to-lipid ratio (mol/mol) 1:100

NQRRLRRILRRLFQFINQLIDDLDDIRRQN [RDFC21]
Aggregated peptides and no leakage: Extent of leakage (in percentage) at increasing peptide-to-lipid ratio (mol/mol) 1:10 | Extent of leakage (in percentage) at increasing peptide-to-lipid ratio (mol/mol) 1:20 | Extent of leakage (in percentage) at increasing peptide-to-lipid ratio (mol/mol) 1:50 | Extent of leakage (in percentage) at increasing peptide-to-lipid ratio (mol/mol) 1:100

NQRRLQNILRRLFQFINQLIDDLQNIRRQN [RDFA7]
Aggregated peptides and no leakage: Extent of leakage (in percentage) at increasing peptide-to-lipid ratio (mol/mol) 1:10 | Extent of leakage (in percentage) at increasing peptide-to-lipid ratio (mol/mol) 1:20 | Extent of leakage (in percentage) at increasing peptide-to-lipid ratio (mol/mol) 1:50 | Extent of leakage (in percentage) at increasing peptide-to-lipid ratio (mol/mol) 1:100

NQRRLRRILRRLWQWINQLIDDLDDIRRQN [RDWC21]
Aggregated peptides and no leakage: Extent of leakage (in percentage) at increasing peptide-to-lipid ratio (mol/mol) 1:10 | Extent of leakage (in percentage) at increasing peptide-to-lipid ratio (mol/mol) 1:20 | Extent of leakage (in percentage) at increasing peptide-to-lipid ratio (mol/mol) 1:50 | Extent of leakage (in percentage) at increasing peptide-to-lipid ratio (mol/mol) 1:100

NQRRLRRILNQLWQWINQLDNQLQDIRRQN [RDWA2]
Aggregated peptides and no leakage: Extent of leakage (in percentage) at increasing peptide-to-lipid ratio (mol/mol) 1:10 | Extent of leakage (in percentage) at increasing peptide-to-lipid ratio (mol/mol) 1:20 | Extent of leakage (in percentage) at increasing peptide-to-lipid ratio (mol/mol) 1:50 | Extent of leakage (in percentage) at increasing peptide-to-lipid ratio (mol/mol) 1:100

NQRRLRRILRRLFQFIDQLDNDLQDIRRQN [RDFC16]
Aggregated peptides and no leakage: Extent of leakage (in percentage) at increasing peptide-to-lipid ratio (mol/mol) 1:10 | Extent of leakage (in percentage) at increasing peptide-to-lipid ratio (mol/mol) 1:20 | Extent of leakage (in percentage) at increasing peptide-to-lipid ratio (mol/mol) 1:50 | Extent of leakage (in percentage) at increasing peptide-to-lipid ratio (mol/mol) 1:100

NQRRLRRILNQLFQFINQLDNQLQDIRQNR [RDFA2i]
Aggregated peptides and no leakage: Extent of leakage (in percentage) at increasing peptide-to-lipid ratio (mol/mol) 1:10 | Extent of leakage (in percentage) at increasing peptide-to-lipid ratio (mol/mol) 1:20 | Extent of leakage (in percentage) at increasing peptide-to-lipid ratio (mol/mol) 1:50 | Extent of leakage (in percentage) at increasing peptide-to-lipid ratio (mol/mol) 1:100
